This note sets out measurements from patent US20240336601A1 (Chulalongkorn University, priority 2020, published 2024).

The target of experiment [1] is T1, PD-1/PD-L1 interaction (Homo sapiens, UniProt Q9NZQ7).
T1 construct: expressed in transfected cells
In words: PD-1/PD-L1 blockage cell-based bioassay (Jurkat NFAT luciferase / CHO-PDL1 co-culture). The note with it: Jurkat NFAT cells co-cultured with CHO-PDL1 cells, 6 h, luminescence.

In experiment [2] the target is interaction between PD-1 and PD-L1 (Homo sapiens, UniProt Q9NZQ7). In words: PD-1/PD-L1 protein-protein interaction assay (ALPHA). Conditions: 2 nM His-tagged human PD-L1, 0.6 nM PD-1-Fc, AlphaScreen. The class given is binding.
interaction between PD-1 and PD-L1, sequence (Q9NZQ7 19-238 limits assumed): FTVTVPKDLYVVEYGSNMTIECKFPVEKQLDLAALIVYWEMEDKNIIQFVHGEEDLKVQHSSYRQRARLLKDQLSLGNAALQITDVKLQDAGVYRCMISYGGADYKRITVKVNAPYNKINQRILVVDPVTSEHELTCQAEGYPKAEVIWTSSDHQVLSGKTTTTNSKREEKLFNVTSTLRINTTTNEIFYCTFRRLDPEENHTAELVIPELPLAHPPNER
Description: PD-1′PD-L1 Protein-Protein Interaction Assay
Amplified Luminescent Proximity Homogeneous Assay (ALPHA) platform was used to evaluate the ability of the compounds to block the interaction between PD-1 and PD-L1. The assays were performed in half volume white 96-well plate in a final volume of 40 μl. Compounds at various concentrations were preincubated with 2 nM His tagged recombinant human PD-L1 protein and 0.6 nM recombinant PD-1 protein with Fc-tag (both reagents were purchased from AcroBiosystems) for 40 minutes. After the preincubation, 20 μg/mL of Alphascreen Ni chelate donor beads (PerkinElmer, USA) and Protein A acceptor beads (PerkinElmer, USA) were added into the well and incubated under reduced light at 25° C. for 120 minutes. The signal was measured with the EnSight Multimode Plate Reader. IC50 values were calculated from the four-parameter logistic curve fit.

T1 sequence (Q9NZQ7 19-290): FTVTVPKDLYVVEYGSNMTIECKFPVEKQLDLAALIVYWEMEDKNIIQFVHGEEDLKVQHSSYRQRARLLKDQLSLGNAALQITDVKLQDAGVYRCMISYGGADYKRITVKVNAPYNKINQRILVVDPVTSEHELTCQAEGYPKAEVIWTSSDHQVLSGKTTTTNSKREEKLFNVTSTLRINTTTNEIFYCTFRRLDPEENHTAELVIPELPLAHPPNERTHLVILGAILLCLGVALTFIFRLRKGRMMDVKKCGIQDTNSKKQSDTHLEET

Broadly, the IC50 is the concentration that gives 50% inhibition. Read a high IC50 as weaker potency in that assay. For `COc1cc(N2CCc3c(-c4cccc(-c5nc6c(s5)CNCC6)c4C)cccc32)cc(OC)c1CNC[C@@H]1CCC(=O)N1` [Example 85, (S)-5-(((2,6-dimethoxy-4-(4-(2-methyl-3-(4,5,6,7-tetrahydrothiazolo[5,4-c]pyridin-2-yl)phenyl)indolin-1-yl)benzyl)amino)methyl)pyrrolidin-2-one], the IC50 was over 2 µM in experiment [1] and 0.01 to 0.1 µM in experiment [2].
For `COc1cc(-n2ncc3c(-c4cccc(-c5ccc(CN6CC[C@@H](O)C6)c(OC)n5)c4Cl)cccc32)cc(OC)c1CNC[C@@H]1CCC(=O)N1` [Example 87, (S)-5-(((4-(4-(2-chloro-3-(5-(((R)-3-hydroxypyrrolidin-1-yl)methyl)-6-methoxypyridin-2-yl)phenyl)-1H-indazol-1-yl)-2,6-dimethoxybenzyl)amino)methyl) pyrrolidin-2-one], in that order: over 2 µM and 0.001 to 0.01 µM.
For `COc1cc(-n2ncc3c(-c4cccc(-c5ccc(CNC[C@@H]6CCC(=O)N6)c(OC)n5)c4Cl)cccc32)cc(OC)c1CN1CC(C)(C(=O)NC2CC2)C1` [Example 88, (S)-1-(4-(4-(2-chloro-3-(6-methoxy-5-((((5-oxopyrrolidin-2-yl)methyl)amino)methyl)pyridin-2-yl)phenyl)-1H-indazol-1-yl)-2,6-dimethoxybenzyl)-N-cyclopropyl-3-methylazetidine-3-carboxamide], in that order: 0.201 to 2 µM and 0.001 to 0.01 µM.
For `COc1cc(-n2ncc3c(-c4cccc(-c5ccc(CN6CC7(CNC(=O)C7)C6)c(OC)n5)c4Cl)cccc32)cc(OC)c1CN1CC2(CNC(=O)C2)C1` [Example 90, 2-(4-(4-(2-chloro-3-(6-methoxy-5-((7-oxo-2,6-diazaspiro[3.4]octan-2-yl)methyl)pyridin-2-yl)phenyl)-1H-indazol-1-yl)-2,6-dimethoxybenzyl)-2,6-diazaspiro[3.4]octan-7-one], in that order: 0.201 to 2 µM and 0.001 to 0.01 µM.
With `COc1cc(-n2ncc3c(-c4cccc(-c5ccc(CN6CC7(CNC(=O)C7)C6)c(OC)n5)c4Cl)cccc32)cc(OC)c1CNC[C@H]1C[C@@H](O)C1` [Example 91, 2-((6-(2-chloro-3-(1-(4-(((((cis)-3-hydroxycyclobutyl)methyl)amino)methyl)-3,5-dimethoxyphenyl)-1H-indazol-4-yl)phenyl)-2-methoxypyridin-3-yl)methyl)-2,6-diazaspiro[3.4]octan-7-one], the figures for the IC50 in experiment [1] and in experiment [2] were 0.201 to 2 µM and 0.001 to 0.01 µM, respectively.
For `COc1cc(-n2ncc3c(-c4cccc(-c5ccc(CN6CC(C)(C(=O)NC7CC7)C6)c(OC)n5)c4Cl)cccc32)cc(OC)c1CNC[C@@H]1CCC(=O)N1` [Example 92, (S)-1-((6-(2-chloro-3-(1-(3,5-dimethoxy-4-((((5-oxopyrrolidin-2-yl)methyl)amino)methyl)phenyl)-1H-indazol-4-yl)phenyl)-2-methoxypyridin-3-yl)methyl)-N-cyclopropyl-3-methylazetidine-3-carboxamide], in that order: under 0.2 µM and under 0.001 µM.
Regarding `COc1cc(-c2cn(C)c3c(-c4cccc(-c5ccc(CNC[C@@H]6CCC(=O)N6)c(OC)n5)c4Cl)cccc23)cc(OC)c1CNC[C@@H]1CCC(=O)N1` [Example 93, (S)-5-((((6-(2-chloro-3-(3-(3,5-dimethoxy-4-(((((S)-5-oxopyrrolidin-2-yl)methyl)amino)methyl)phenyl)-1-methyl-1H-indol-7-yl)phenyl)-2-methoxypyridin-3-yl)methyl)amino)methyl)pyrrolidin-2-one], the IC50 in experiment [1] was over 2 µM; in experiment [2], 0.001 to 0.01 µM.
On the same counts, the results for `COc1cc(-n2ncc3c(-c4cccc(-c5ccc(CN6CC(C)(C(=O)NC7CC7)C6)c(OC)n5)c4Cl)cccc32)cc(OC)c1CNC[C@H]1C[C@@H](O)C1` [Example 95, 1-((6-(2-chloro-3-(1-(4-((((cis-3-hydroxycyclobutyl)methyl)amino)methyl)-3,5-dimethoxyphenyl)-1H-indazol-4-yl)phenyl)-2-methoxypyridin-3-yl)methyl)-N-cyclopropyl-3-methylazetidine-3-carboxamide] are 0.201 to 2 µM and 0.001 to 0.01 µM.
For `COc1cc(-n2ccc3c(-c4cccc(-c5ccc(CN6CC7(CNC(=O)C7)C6)c(OC)n5)c4Cl)cccc32)cc(OC)c1CNC[C@@H]1CCC(=O)N1` [Example 96, (S)-2-((6-(2-chloro-3-(1-(3,5-dimethoxy-4-((((5-oxopyrrolidin-2-yl)methyl)amino)methyl)phenyl)-1H-indol-4-yl)phenyl)-2-methoxypyridin-3-yl)methyl)-2,6-diazaspiro[3.4]octan-7-one], in that order: 0.201 to 2 µM and 0.001 to 0.01 µM.
On the same counts, the results for `COc1cc(-n2ncc3c(-c4cccc(-c5ccc(CN6CC7(CNC(=O)C7)C6)c(OC)n5)c4Cl)cccc32)cc(OC)c1CN[C@H]1C[C@@H](O)C1` [Example 97, 2-((6-(2-chloro-3-(l-(4-(((cis-3-hydroxycyclobutyl)amino)methyl)-3,5-dimethoxyphenyl)-1H-indazol-4-yl)phenyl)-2-methoxypyridin-3-yl)methyl)-2,6-diazaspiro[3.4]octan-7-one] are under 0.2 µM and under 0.001 µM.
As for `COc1cc(-n2ncc3c(-c4cccc(-c5ccc(CN[C@H]6C[C@@H](O)C6)c(OC)n5)c4Cl)cccc32)cc(OC)c1CN1CC(C)(C(=O)NC2CC2)C1` [Example 100, 1-(4-(4-(2-chloro-3-(5-(((cis-3-hydroxycyclobutyl)amino)methyl)-6-methoxypyridin-2-yl)phenyl)-1H-indazol-1-yl)-2,6-dimethoxybenzyl)-N-cyclopropyl-3-methylazetidine-3-carboxamide], the IC50 is under 0.2 µM in experiment [1] and under 0.001 µM in experiment [2].
For `COc1cc(-n2ncc3c(-c4cccc(-c5ccc(CN[C@H]6C[C@@H](O)C6)c(OC)n5)c4Cl)cccc32)cc(OC)c1CN[C@H]1C[C@@H](O)C1` [Example 101, cis-3-(((6-(2-chloro-3-(1-(4-(((cis-3-hydroxycyclobutyl)amino)methyl)-3,5-dimethoxyphenyl)-1H-indazol-4-yl)phenyl)-2-methoxypyridin-3-yl)methyl)amino)cylobutanol], in that order: under 0.2 µM and under 0.001 µM.
`COc1cc(-n2ncc3c(-c4cccc(-c5ccc(CN[C@H]6C[C@@H](O)C6)c(OC)n5)c4Cl)cccc32)cc(OC)c1CN1CC(C)(O)C1` [Example 102, 1-(4-(4-(2-chloro-3-(5-(((cis-3-hydroxycyclobutyl)amino)methyl)-6-methoxypyridin-2-yl)phenyl)-1H-indazol-1-yl)-2,6-dimethoxybenzyl)-3-methylazetidin-3-ol]: the IC50 is under 0.2 µM in experiment [1] and 0.001 to 0.01 µM in experiment [2].
On the same counts, the results for `COc1cc(-n2ncc3c(-c4cccc(-c5ccc(CN6CC7(CNC(=O)C7)C6)c(OC)n5)c4Cl)cccc32)cc(OC)c1CN1CC(C)(C(N)=O)C1` [Example 103, 1-(4-(4-(2-chloro-3-(6-methoxy-5-((7-oxo-2,6-diazaspiro[3.4]octan-2-yl)methyl)pyridin-2-yl)phenyl)-1H-indazol-1-yl)-2,6-dimethoxybenzyl)-3-methylazetidine-3-carboxamide] are under 0.2 µM and 0.001 to 0.01 µM.
For `COc1cc(-n2ncc3c(-c4cccc(-c5ccc(CN6CC(C)(C(N)=O)C6)c(OC)n5)c4Cl)cccc32)cc(OC)c1CN1CC(C)(O)C1` [Example 104, 1-((6-(2-chloro-3-(1-(4-((3-hydroxy-3-methylazetidin-1-yl)methyl)-3,5-dimethoxyphenyl)-1H-indazol-4-yl)phenyl)-2-methoxypyridin-3-yl)methyl)-3-methylazetidine-3-carboxamide], in that order: 0.201 to 2 µM and 0.001 to 0.01 µM.
As to `COc1cc(-n2ncc3c(-c4cccc(-c5ccc(CN[C@H]6C[C@@H](O)C6)c(OC)n5)c4Cl)cccc32)cc(OC)c1CN1CC(C)(C(N)=O)C1` [Example 105, 1-(4-(4-(2-chloro-3-(5-(((cis-3-hydroxycyclobutyl)amino)methyl)-6-methoxypyridin-2-yl)phenyl)-1H-indazol-1-yl)-2,6-dimethoxybenzyl)-3-methylazetidine-3-carboxamide], the IC50 is under 0.2 µM in experiment [1] and under 0.001 µM in experiment [2].
On the same counts, the results for `COc1cc(-n2ncc3c(-c4cccc(-c5ccc(CN[C@H]6C[C@@H](O)C6)c(OC)n5)c4Cl)cccc32)ncc1CN[C@H]1C[C@@H](O)C1` [Example 106, cis-3-(((6-(2-chloro-3-(1-(5-(((cis-3-hydroxycyclobutyl)amino)methyl)-4-methoxypyridin-2-yl)-1H-indazol-4-yl)phenyl)-2-methoxypyridin-3-yl)methyl)amino)cyclobutanol] are 0.201 to 2 µM and under 0.001 µM.
Take `COc1cc(-n2ncc3c(-c4cccc(-c5ccc(CN6CC7(CNC(=O)C7)C6)c(OC)n5)c4Cl)cccc32)cc(OC)c1CNCC(C)(C)C(N)=O` [Example 107, 3-((4-(4-(2-chloro-3-(6-methoxy-5-((7-oxo-2,6-diazaspiro[3.4]octan-2-yl)methyl)pyridin-2-yl)phenyl)-1H-indazol-1-yl)-2,6-dimethoxybenzyl)amino)-2,2-dimethylpropanamide]: the values for the IC50 in experiment [1] and in experiment [2] were under 0.2 µM and under 0.001 µM, respectively.
On the same counts, the results for `COc1cc(-n2ncc3c(-c4cccc(-c5ccc(CN6CC7(CNC(=O)C7)C6)c(OC)n5)c4Cl)cccc32)ncc1CNC[C@@H]1CCC(=O)N1` [Example 108, (S)-2-((6-(2-chloro-3-(1-(4-methoxy-5-((((5-oxopyrrolidin-2-yl)methyl)amino)methyl)pyridin-2-yl)-1H-indazol-4-yl)phenyl)-2-methoxypyridin-3-yl)methyl)-2,6-diazaspiro[3.4]octan-7-one] are under 0.2 µM and under 0.001 µM.
For `COc1cc(-n2ncc3c(-c4cccc(-c5ccc(CN[C@H]6C[C@@H](O)C6)c(OC)n5)c4Cl)cccc32)cc(OC)c1CNCC(C)(C)C(N)=O` [Example 109, 3-((4-(4-(2-chloro-3-(5-(((cis-3-hydroxycyclobutyl)amino)methyl)-6-methoxypyridin-2-yl)phenyl)-1H-indazol-1-yl)-2,6-dimethoxybenzyl)amino)-2,2-dimethylpropanamide], in that order: under 0.2 µM and 0.001 to 0.01 µM.
